In data set [1] the test system is K562 cells. As to conditions: Gone et al. 2002; cited from earlier work.
Data set [2] has as its system Bortezomib refractory multiple myeloma cell lines. As to conditions: Mitsiades et al. 2006; cited from earlier work.
Data set [3] concerns MM-1 cells. Particulars: 17-AAG treated MM-1 cells; Mitsiades et al. 2006; cited from earlier work.
Data set [4] relates to HSP90. The data set is described as follows: Hsp90 inhibition (statement). The data set is classed as biochemical. As to conditions: no value.
The subject of data set [5] is patients with advanced solid tumours. The data set is described as follows: Phase I study, Two-Consecutive Day (QDx2) dosing schedule. The data set is classed as in vivo, human.
Data set [6] deals with vemurafenib sensitive and resistant models of melanoma. Particulars: Rodriguez-Lopez et al., AACR 2012; cited from earlier work.
Data set [7] deals with solid tumours refractory to standard therapy. As to conditions: cited from earlier work.
Data set [8] deals with refractory solid tumours. As to conditions: including three GIST patients; Mahadevan et al. 2012; cited from earlier work.
A short description of data set [9]: physchem. It is filed as physicochemical. As to conditions: for solubility thermodynamic / solubility: aqueous buffer, thermodynamic from solid, read-out: L-Lactate Salt of Compound of Formula (I) Concentration. As to the method: Buffers were prepared using monobasic and dibasic salts of sodium phosphate in order to achieve the correct buffer concentrations and pH as follows:
The pH of each buffer was the target pH±0.05. Minor adjustments with small amounts of dilute sodium hydroxide were made to both of the 200 mM buffers to meet this criterion.
(§1) Aliquots of 1 g of the L-lactate salt of the compound of formula (I) were weighed into individual 20 ml scintillation vials and 10 ml of each buffer was added to a vial. An additional sample was prepared in deionised water. Samples were covered in aluminium foil to protect from light and mixed using a magnetic stirrer overnight.
(§2) The appearance of each sample was recorded. Samples were transferred to centrifuge tubes and centrifuged at 3500rpm for 15 minutes. The samples prepared using the 200 mM buffers were visually free of undissolved material, but were centrifuged in order to make sure that all samples were treated the same. The supernatants were retained for determination of compound of formula (I) by UV and pH measurement.
(§3) Assay by UV: A calibration curve was prepared using the L-lactate salt of the compound of formula (I) dissolved in deionised water and covering the range 0 to 0.10 mg/ml. Absorbance was determined at 286 nm. Samples were diluted as necessary using deionised water and absorbance determined at 286 nm versus a blank. The content of the compound of formula (I) was determined using the standard curve. All UV readings were taken in duplicate.

Data set [10] in a line: Solubility in deionised water, acetate, succinate and citrate buffers (Example 5). It is filed as physicochemical. Particulars: thermodynamic from solid, read-out: Solubility L-lactate salt of compound of formula (I). The protocol:
as §1, §2, §3
In a manner analogous to Example 3, formulations were prepared of the L-lactate salt of the compound of formula (I) with acetate, succinate and citrate buffers at different concentrations and at different pH. As shown in the table below, neither the acetate nor citrate buffers were as useful as the phosphate buffer formulation of Example 3, but the succinate buffer gave good L-lactate salt solubility.

Data set [11] can be described thus: Effect of surfactant (polysorbate 80, Tween) on solubility in phosphate buffer pH 7.2 (Example 6). The data set is classed as physicochemical. Particulars: for increase in solubility on addition of Tween: physiological pH, 1-8 (w/v) Tween versus no Tween; for solubility: sodium phosphate buffer, 200 mM phosphate, read-out: Solubility of L-lactate salt of compound of formula (I). The protocol: Solutions of sodium phosphate buffer at a pH of 7.2 were prepared with and without polysorbate 80 (Tween) and the solubilities of the L-lactate salt of the compound of formula (I) were determined.

SMILES strings stand for the structures. Where two headings read alike, the source gives them in different places.

For `Cc1ccc(NC(=O)c2ccc(CN3CCN(C)CC3)cc2)cc1Nc1nccc(-c2cccnc2)n1` [Gleevec], the apoptosis result in [1] is “induces apoptosis”.

Consider `C=CCNC1=C2C[C@@H](C)C[C@H](OC)[C@H](O)[C@@H](C)/C=C(\C)[C@H](OC(N)=O)[C@@H](OC)/C=C\C=C(/C)C(=O)NC(=CC1=O)C2=O` [17-AAG], for which, in [2], the proliferation result was “potently inhibits proliferation”. For the same molecule, the “cell surface levels of IGF-1R and IL-6R” value in data set [3] is given as “diminished”.

In the case of `CC(C)c1cc(C(=O)N2Cc3ccc(CN4CCN(C)CC4)cc3C2)c(O)cc1O` [compound of formula (I), (2,4-Dihydroxy-5-isopropyl-phenyl)-[5-(4-methyl-piperazin-1-ylmethyl)-1,3-dihydro-isoindol-2-yl]-methanone], the HSP90 inhibition entry in [4] is recorded as “potent HSP90 inhibitor”. The tolerability result in data set [5] was “well tolerated”. In addition, the “efficacy in melanoma models” value in data set [6] was “effective”. The “PET scan, metabolic activity of the tumour” value in [7] (GIST patient, 220 mg/m^2 weekly, before and after treatment, Shapiro 2011) is “substantial reduction in the metabolic activity of the tumour”. Also, in data set [7] (twice weekly schedule, further patients, Shapiro et al. 2010), the “stable disease for beyond 2 cycles of treatment” value is reported as “five of the original twenty one patients”. For the same molecule, the “stable disease for at least six months” value in [7] (twice weekly schedule, one melanoma, one thyroid cancer, Shapiro et al. 2010) is “two of the original twenty one patients”. The “objective and durable partial response and stable disease” value in data set [8] is on record as “five patients”.

For `CC(C)c1cc(C(=O)N2Cc3ccc(CN4CCN(C)CC4)cc3C2)c(O)cc1O.C[C@H](O)C(=O)O` [(2,4-Dihydroxy-5-isopropyl-phenyl)-[5-(4-methyl-piperazin-1-ylmethyl)-1,3-dihydro-isoindol-2-yl]-methanone L-lactate salt], the solubility thermodynamic is 77.3 mg/mL in [9] (sodium phosphate buffer 50 mM/pH 5.0, pH of supernatant 5.13) and 75.9 mg/mL in data set [9] (sodium phosphate buffer 50 mM/pH 5.5, pH of supernatant 5.18). In addition, the solubility is ≥ 95.7 mg/mL in data set [9] (sodium phosphate buffer 200 mM/pH 5.0 (fifth line of table), pH of supernatant 4.99); ≥ 94.8 mg/mL in data set [9] (sodium phosphate buffer 200 mM/pH 5.5, pH of supernatant 5.08); 24.4 mg/mL in [10] (acetate buffer, aqueous buffer, 50 mM Acetate pH 5.5, pH 4.87); 19.1 mg/mL in [10] (acetate buffer, aqueous buffer, 50 mM Acetate pH 6.0, pH 5.03); 85.6 mg/mL in data set [10] (citrate buffer, aqueous buffer, 50 mM Citrate pH 5.5, pH 5.23); 83.9 mg/mL in data set [10] (citrate buffer, aqueous buffer, 50 mM Citrate pH 6.0, pH 5.55). Moreover, the solubility in data set [10] (succinate buffer, aqueous buffer, 50 mM Succinate pH 5.5, pH 5.38) worked out at 78.3 mg/mL; in [10] (succinate buffer, aqueous buffer, 50 mM Succinate pH 6.0, pH 5.69), 78.3 mg/mL; in data set [10] (succinate buffer, aqueous buffer, 100 mM Succinate pH 6.0, pH 5.76) it was 89.9 mg/mL; in [10] (succinate buffer, pH 5.3, aqueous buffer, 100 mM Succinate pH 5.5, pH 5.30), 89.2 mg/mL; in data set [10] (Deionised water, pH 5.52), 59.5 mg/mL; in [11] (aqueous buffer, pH 7.2, Tween 0 % (w/v)) it was 21 mg/mL. In data set [11] (aqueous with cosolvent or surfactant or cyclodextrin, pH 7.2, Tween 1-8 % (w/v)), the solubility was in the range of 33 to 34 mg/mL. Besides, the “L-Lactate Salt of Compound of Formula (I) Concentration” value turned out to be 86.3 mg/mL in [9] (sodium phosphate buffer 100 mM/pH 5.5, pH of supernatant 5.10) and 89.0 mg/mL in [9] (sodium phosphate buffer 200 mM/pH 5.0 (third line of table), pH of supernatant 5.05). For the same molecule, the “increase in solubility on addition of Tween” value in data set [11] is recorded as 1.5 fold; in [11] (listed as lactate salt of the compound of formula (I)) it was “approximately 1.5 fold”.
